Each structure is given as a SMILES string. Bounds are passed on as bounds.

In one experiment the test system is ATF4 luciferase reporter in HEK293T cells. Description: ATF4-Luc assay (in vitro model of VWMD). Format: cell-based, human. Conditions: HEK293T cells carrying the ATF4 luciferase reporter, 1 μg/mL tunicamycin, 7 hours, One Glo luminescence. How it is done:
In order to test exemplary compounds of the invention in a cellular context, a stable VWMD cell line was first constructed. The ATF4 reporter was prepared by fusing the human full-length ATF4 5′-UTR (NCBI Accession No. BC022088.2) in front of the firefly luciferase (FLuc) coding sequence lacking the initiator methionine as described in Sidrauski et al (eLife 2013). The construct was used to produce recombinant retroviruses using standard methods and the resulting viral supernatant was used to transduce HEK293T cells, which were then subsequently selected with puromycin to generate a stable cell line.
HEK293T cells carrying the ATF4 luciferase reporter were plated on polylysine coated 384-well plates (Greiner Bio-one) at 30,000 cells per well. Cells were treated the next day with 1 μg/mL tunicamycin and 200 nM of a compound of Formula (I) for 7 hours. Luminescence was measured using One Glo (Promega) as specified by the manufacturer. Cells were maintained in DMEM with L-glutamine supplemented with 10% heat-inactivated FBS (Gibco) and Antibiotic-Antimycotic solution (Gibco).
Table 4 below summarizes the EC50 data obtained using the ATF4-Luc assay for exemplary compounds of the invention.
What is called EC50 is the concentration that produces a half-maximal response. With `O=C(COc1ccc(Cl)c(F)c1)NC12CC(c3ccnc(OCCCOC(F)(F)F)c3)(C1)C2` [Compound 602, 2-(4-chloro-3-fluorophenoxy)-N-(3-{2-[3-(trifluoromethoxy)propoxy]pyridin-4-yl}bicyclo[1.1.1]pentan-1-yl)acetamide], the EC50 is below 10 nM.

The experiment is the same for the next values; noted with them: Homo sapiens, HEK-293T, 7 h, HEK293T cells carrying the ATF4 luciferase reporter, 1 μg/mL tunicamycin, One Glo luminescence.
For `O=C(N[C@H]1CC[C@H](n2cc(OCCOC(F)(F)F)cn2)CC1)[C@H]1C[C@@H](O)c2ccccc2O1` [Compound 637, (2R,4R)-4-hydroxy-N-[(1r,4R)-4-{4-[2-(trifluoromethoxy)ethoxy]-1H-pyrazol-1-yl}cyclohexyl]-3,4-dihydro-2H-1-benzopyran-2-carboxamide], the EC50 was 50 to 250 nM.
Same read-out and setting: with `O=C(NC12CC(n3cc(C(=S)N4CC[C@H](OC(F)(F)F)C4)cn3)(C1)C2)[C@H]1C[C@@H](O)c2cc(Cl)ccc2O1` [Compound 390, (2R,4R)-6-chloro-4-hydroxy-N-(3-{4-[(3S)-3-(trifluoromethoxy)pyrrolidine-1-carbothioyl]-1H-pyrazol-1-yl}bicyclo[1.1.1]pentan-1-yl)-3,4-dihydro-2H-1-benzopyran-2-carboxamide] the figure was below 10 nM; with `O=C(NC12CC(n3cc(O[C@H]4C[C@@H](COC(F)(F)F)C4)cn3)(C1)C2)[C@H]1C[C@@H](O)c2cc(Cl)ccc2O1` [Compound 589, (2R,4R)-6-chloro-4-hydroxy-N-{3-[4-({(1s,3S)-3-[(trifluoromethoxy)methyl]cyclobutyl}oxy)-1H-pyrazol-1-yl]bicyclo[1.1.1]pentan-1-yl}-3,4-dihydro-2H-1-benzopyran-2-carboxamide], 10 to 50 nM; with `O=C(NC12CC(n3cc(-c4ccc(C(F)(F)F)cn4)cn3)(C1)C2)[C@H]1C[C@@H](O)c2cc(Cl)ccc2O1` [Compound 364, (2R,4R)-6-chloro-4-hydroxy-N-(3-{4-[5-(trifluoromethyl)pyridin-2-yl]-1H-pyrazol-1-yl}bicyclo[1.1.1]pentan-1-yl)-3,4-dihydro-2H-1-benzopyran-2-carboxamide], below 10 nM.
For `O=C(NC12CC(n3cc(OCCOC(F)(F)F)cn3)(C1)C2)[C@H]1C[C@@H](O)c2cc(Cl)c(F)cc2O1` [Compound 413, (2R,4R)-6-chloro-7-fluoro-4-hydroxy-N-(3-{4-[2-(trifluoromethoxy)ethoxy]-1H-pyrazol-1-yl}bicyclo[1.1.1]pentan-1-yl)-3,4-dihydro-2H-1-benzopyran-2-carboxamide], the EC50 is below 10 nM.
Turning to `O=C(NC12CC(n3cc(-c4ccc(C5CC5)cn4)cn3)(C1)C2)[C@H]1C[C@@H](O)c2cc(Cl)c(F)cc2O1` [Compound 571, (2R,4R)-6-chloro-N-{3-[4-(5-cyclopropylpyridin-2-yl)-1H-pyrazol-1-yl]bicyclo[1.1.1]pentan-1-yl}-7-fluoro-4-hydroxy-3,4-dihydro-2H-1-benzopyran-2-carboxamide], the half-maximal effective concentration (EC50) was below 10 nM.
Same read-out and setting: for `O=C(NC12CC(n3cc(N4CCC(OC(F)(F)F)C4)cn3)(C1)C2)[C@H]1C[C@@H](O)c2cc(Cl)ccc2O1` (stereo partly drawn) [Compound 325, (2R,4R)-6-chloro-4-hydroxy-N-(3-{4-[3-(trifluoromethoxy)pyrrolidin-1-yl]-1H-pyrazol-1-yl}bicyclo[1.1.1]pentan-1-yl)-3,4-dihydro-2H-1-benzopyran-2-carboxamide] the value was below 10 nM; for `O=C(COc1ccc(Cl)c(F)c1)NC12CC(c3ccc(C(=O)N4CC(OCC(F)(F)F)C4)nc3)(C1)C2` [Compound 601, 2-(4-chloro-3-fluorophenoxy)-N-(3-{6-[3-(2,2,2-trifluoroethoxy)azetidine-1-carbonyl]pyridin-3-yl}bicyclo[1.1.1]pentan-1-yl)acetamide], 10 to 50 nM; for `O=C(NC12CCC(n3cc(OCCCOC(F)(F)F)cn3)(C1)C2)[C@H]1C[C@@H](O)c2cc(Cl)c(F)cc2O1` [Compound 629, (2R,4R)-6-chloro-7-fluoro-4-hydroxy-N-(4-{4-[3-(trifluoromethoxy)propoxy]-1H-pyrazol-1-yl}bicyclo[2.1.1]hexan-1-yl)-3,4-dihydro-2H-1-benzopyran-2-carboxamide], 10 to 50 nM.
As for `O=C(NC12CC(n3cc(CCOC(F)(F)F)cn3)(C1)C2)[C@H]1C[C@@H](O)c2cc(Cl)c(F)cc2O1` [Compound 515, (2R,4R)-6-chloro-7-fluoro-4-hydroxy-N-(3-{4-[2-(trifluoromethoxy)ethyl]-1H-pyrazol-1-yl}bicyclo[1.1.1]pentan-1-yl)-3,4-dihydro-2H-1-benzopyran-2-carboxamide], the EC50 fell in the range of 10 to 50 nM.
On to `O=C(NC12CC(n3cc4c(n3)CN(C(=O)COC(F)(F)F)C4)(C1)C2)[C@H]1C[C@@H](O)c2cc(Cl)c(F)cc2O1` [Compound 511, (2R,4R)-6-chloro-7-fluoro-4-hydroxy-N-(3-{5-[(trifluoromethoxy)acetyl]-5,6-dihydropyrrolo[3,4-c]pyrazol-2(4H)-yl}bicyclo[1.1.1]pentan-1-yl)-3,4-dihydro-2H-1-benzopyran-2-carboxamide], for which the EC50 is 10 to 50 nM.
Still for that read-out and setting: with `O=C(COc1ccc(Cl)c(F)c1)NC12CC(n3cc(OCCOC(F)(F)F)cn3)(C1)C2` [Compound 451, 2-(4-chloro-3-fluorophenoxy)-N-(3-{4-[2-(trifluoromethoxy)ethoxy]-1H-pyrazol-1-yl}bicyclo[1.1.1]pentan-1-yl)acetamide] the figure was below 10 nM.
Consider `COc1cc2cn(C34CC(NC(=O)[C@H]5C[C@@H](O)c6cc(Cl)ccc6O5)(C3)C4)nc2cn1` [Compound 497, (2R,4R)-6-chloro-4-hydroxy-N-[3-(5-methoxy-2H-pyrazolo[3,4-c]pyridin-2-yl)bicyclo[1.1.1]pentan-1-yl]-3,4-dihydro-2H-1-benzopyran-2-carboxamide], for which the EC50 was in the range of 10 to 50 nM.
As to `O=C(NC12CC(n3cc(OCCCOC(F)(F)F)cn3)(C1)C2)[C@H]1C[C@@H](O)c2cc(Cl)ccc2O1` [Compound 431, (2R,4R)-6-chloro-4-hydroxy-N-(3-{4-[3-(trifluoromethoxy)propoxy]-1H-pyrazol-1-yl)bicyclo[1.1.1]pentan-1-yl)-3,4-dihydro-2H-1-benzopyran-2-carboxamide], the EC50 was below 10 nM.
Turning to `O=C(NC12CC(n3cc(COCCOC(F)(F)F)nn3)(C1)C2)[C@H]1C[C@@H](O)c2cc(Cl)c(F)cc2O1` [Compound 467, (2R,4R)-6-chloro-7-fluoro-4-hydroxy-N-[3-(4-{[2-(trifluoromethoxy)ethoxy]methyl}-1H-1,2,3-triazol-1-yl)bicyclo[1.1.1]pentan-1-yl]-3,4-dihydro-2H-1-benzopyran-2-carboxamide], the EC50 was below 10 nM.
`O=C(NC12CC(n3cc(OC[C@H]4C[C@H](OC(F)(F)F)C4)cn3)(C1)C2)[C@H]1C[C@@H](O)c2cc(Cl)ccc2O1` [Compound 584, (2R,4R)-6-chloro-4-hydroxy-N-[3-(4-{[(1r,3R)-3-(trifluoromethoxy)cyclobutyl]methoxy}-1H-pyrazol-1-yl)bicyclo[1.1.1]pentan-1-yl]-3,4-dihydro-2H-1-benzopyran-2-carboxamide]: the half-maximal effective concentration (EC50) was below 10 nM.
Same read-out and setting: for `O=C(N[C@H]1CC[C@H](n2cc(OCCCOC(F)(F)F)cn2)CC1)[C@H]1C[C@@H](O)c2cc(Cl)ccc2O1` [Compound 423, (2R,4R)-6-chloro-4-hydroxy-N-[(1r,4R)-4-{4-[3-(trifluoromethoxy)propoxy]-1H-pyrazol-1-yl}cyclohexyl]-3,4-dihydro-2H-1-benzopyran-2-carboxamide] the value was below 10 nM.
For the compound `O=C(CO[C@H]1C[C@@H](OC(F)(F)F)C1)NC12CC(NC(=O)[C@H]3C[C@@H](O)c4cc(Cl)c(Cl)cc4O3)(C1)C2` [Compound 494, (2R,4R)-6,7-dichloro-4-hydroxy-N-[3-(2-{[(1s,3S)-3-(trifluoromethoxy)cyclobutyl]oxy}acetamido)bicyclo[1.1.1]pentan-1-yl]-3,4-dihydro-2H-1-benzopyran-2-carboxamide], the EC50 was below 10 nM.
`O=C(NC12CC(n3cc([C@@H]4C[C@H]4COC(F)(F)F)cn3)(C1)C2)[C@H]1C[C@@H](O)c2cc(Cl)ccc2O1` (mixture of isomers) [Compound 372, (2R,4R)-6-chloro-4-hydroxy-N-[3-(4-{(1RS,2RS)-2-[(trifluoromethoxy)methyl]cyclopropyl}-1H-pyrazol-1-yl)bicyclo[1.1.1]pentan-1-yl]-3,4-dihydro-2H-1-benzopyran-2-carboxamide]: the concentration for a half-maximal effect (EC50) lay within 10 to 50 nM.
Still for that read-out and setting: for `O=C(NC12CC(n3cc(OCCOC(F)(F)F)cn3)(C1)C2)[C@H]1C[C@H](O)c2cc(Cl)c(Cl)cc2O1` [Compound 436, (2R,4S)-6,7-dichloro-4-hydroxy-N-(3-{4-[2-(trifluoromethoxy)ethoxy]-1H-pyrazol-1-yl}bicyclo[1.1.1]pentan-1-yl)-3,4-dihydro-2H-1-benzopyran-2-carboxamide] the value was below 10 nM; for `O=C(CO[C@H]1C[C@@H](OC(F)(F)F)C1)N[C@H]1C[C@H]2C[C@@H]1C[C@@H]2NC(=O)[C@@H]1C[C@@H](O)c2cc(Cl)ccc2O1` [Compound 388, (2S,4R)-6-chloro-4-hydroxy-N-[(1R,2S,4R,5S)-5-(2-{[cis-3-(trifluoromethoxy)cyclobutyl]oxy}acetamido)bicyclo[2.2.1]heptan-2-yl]-3,4-dihydro-2H-1-benzopyran-2-carboxamide], 50 to 250 nM.

For the origin of these results see US20250145594A1, “MODULATORS OF THE INTEGRATED STRESS PATHWAY” (Calico Life Sciences LLC, priority 2020, published 2025).
